Tests used:
Format in all cases: cell-based
[1] = system: MO-DC/CD4(+) T cell co-cultures (MO-DC stimulators, allogenic CD4(+) T cells responders); experiment: Immune suppressive activity in mixed leucocyte culture (MLC), standard assay; conditions: concentration inhibiting 50% of [methyl-3H]-Thymidine incorporation, 5 days of culture, compound present throughout, read-out: ISC50 (nM) (Test B, standard assay))
Protocol: (§1) The compounds of formula (I) were tested for their immune-suppressive activity (defined as ISC50 value) in a classical MLC in which monocyte-derived dendritic cells (MO-DC) were used as stimulators and allogenic CD4(+) T cells as responders. A dilution series of test compound was added to the MO-DC/CD4(+) T cell co-cultures. After 5 days of culture, 20 μl of [methyl-3H]-Thymidine was added to each well and cultures were harvested after 7 hours. Analysis was done on a Topcount scintillation counter. The immune suppressive concentration (ISC50) is defined as the test compound concentration inhibiting 50% of normal immune proliferation (test compound concentration inhibiting 50% of [methyl-3H]-Thymidine incorporation). (standard MLC assay)

[2] = system: monotropic HIV strain Ba-L; experiment: In vitro model c) (standard infection experiment), MO-DC/CD4(+) T cell co-cultures, ELISA for HIV antigens after 14 days; conditions: concentration suppressing 50% of viral replication at end of primary culture (14 days), test compound present throughout, MOI 10^-3
Protocol: Monocyte-derived dendritic cells (MO-DC) were infected for 2 hours with the monotropic HIV strain Ba-L at a multiplicity of infection (MOI) of 10^−3. After infection, cells were washed 6 times and resuspended in 10% BCS at 400.000 cells/ml. Autologous CD4(+) T cells were purified out of the lymphocyte fraction of the same elutration as the MO-DC and used at a concentration of 2×10^6 cells/ml ((ratio MO-DC/CD4(+) T: 1/5).
A serial dilution of a compound of formula (I) (test compound) was added to the MO-DC/CD4(+) T cell co-cultures. Each experiment was done in 96-well plates, in which each cup contained 50 μl of MO-DC, 50 μl of CD4(+) T cells and 100 μl of test compound. Half of the culture medium, with test compound, was refreshed twice weekly, during 14 days. Supernatants were analysed by ELISA after 14 days of culture for the presence of HIV antigens. To determine antiviral activity, the test compound concentration able to suppress 50% of the viral replication at the end of the primary cultures (EC50) was measured.

[3] = system: MO-DC/CD4(+) T cell co-cultures (MO-DC stimulators, allogenic CD4(+) T cells responders); experiment: Immune suppressive activity in mixed leucocyte culture (MLC), 24 hour assay; conditions: test compound present only during first 24 hours of the 5-day culture; read-out: ISC50 (nM) (Test B, 24 hour assay))
Protocol: The compounds of formula (I) were tested for their immune-suppressive activity (defined as ISC50 value) in a classical MLC in which monocyte-derived dendritic cells (MO-DC) were used as stimulators and allogenic CD4(+) T cells as responders.
as §1, with “A” for “The compounds of formula (I) were tested for their immune-suppressive activity (defined as ISC50 value) in a classical MLC in which monocyte-derived dendritic cells (MO-DC) were used as stimulators and allogenic CD4(+) T cells as responders. A”
For the 24 hour assay, the test compound was only present during the first 24 hours of the 5-day culture period. After 24 hours, the cultures were washed (three times) and culture medium without compound was added. The experimental set-up was from then on similar to the standard MLC assay described above.

[4] = system: HIV strain Ba-L; experiment: In vitro model b) (24 hour infection experiment), MO-DC co-cultured with autologous T4 cells
Protocol: Monocyte-derived dendritic cells (MO-DC) were co-cultured with autologous T4 cells and infected with HIV strain Ba-L at a multiplicity of infection (MOI) of 10^−3. A serial dilution of test compound was added at the time of infection. After 24 hours, 96-well plates were washed 3 times (test compound and free virus washed away) and medium (without test compound) was added. Half of the medium was refreshed twice a week. Culture supernatants were harvested after 7 and 14 days of culture. After 14 days, cultures were washed 3 times and PHA/IL-2 stimulated PBMC were added for a secondary culture to check for viral rescue. During secondary culture, half of the medium was refreshed twice weekly (IL-2 medium, without test compound). Supernatants were harvested after 1 and 2 weeks of secondary culture. After 2 weeks of secondary culture, cells were also harvested for PCR analysis. Supernatants were analysed in ELISA for the presence of HIV […] during primary and secondary culture.

[5] = system: HIV; experiment: HIV replication inhibition test of "C. Pharmacological example" of WO 2003/016306; conditions: test described in WO 2003/016306
Source text: Due to their antiretroviral properties, particularly their anti-HIV properties, especially their anti-HIV-1-activity, the compounds of formula (I), their N-oxides, pharmaceutically acceptable addition salts, quaternary amines and stereochemically isomeric forms thereof, are useful in the treatment of individuals infected by HIV. The HIV replication inhibiting effect of the compounds of formula (I) is described in WO 2003/016306. Compound 255 has a pIC50 value of 9.00 when tested in the test described under the heading “C. Pharmacological example” of WO 2003/016306.

Row | IC50 ([1]; Leucocyte, 120 h) [nM] | EC50 ([2]; Human immunodeficiency virus 1, BAL, T-cell, 336 h) [nM] | IC50 [1] [nM] | IC50 [3] [nM] | EC50 ([4]; test compound added at time of infection and washed away after 24 hours, MOI 10^-3) [nM] | pIC50 [5] | EC50 [2] [nM] | SMILES | cups tested positive in ELISA after 7 days of primary culture ([4]; concentrations ranging from 10,000 to 10 nM, 6 cups)
1 | 1140 | 5.5 |  |  |  |  |  | Cc1cc(/C=C/c2ccncc2)cc(C)c1Nc1ccnc(Nc2ccc(C#N)cc2)n1 [Compound 162] | 
2 |  |  | 20200 | 24600 | 2 | 9.00 | 0.05 | Cc1cc(/C=C/C#N)cc(C)c1Oc1ccnc(Nc2ccc(C#N)cc2)n1 [Compound 255, 4-[[4-[4-(2-cyanoethenyl)-2,6-dimethylphenoxy]-2-pyrimidinyl]amino]benzonitrile (E)] | none out of 6
